The record followed here is patent publication US12291519B2, “2-hydroxycycloalkane-1-carbamoyl” (Idorsia Pharmaceuticals Ltd, priority 2019, dated 2025).

One assay has as its target human Gal-3 (hGal-3) (Homo sapiens (Human), UniProt P17931). The assay can be described thus: Competitive binding assay: biotinylated hGal-3 binding to microplate-adsorbed asialofetuin (ASF). The note with it: Activity on hGal-3; binding of biotinylated hGal-3 to ASF-coated plates; mean values. Summed up:
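Serially diluted compounds competed with biotinylated human Gal-3 for binding to plate-adsorbed asialofetuin over 3 h at 4 °C. Bound Gal-3 was detected with streptavidin-peroxidase (80 ng/mL, 1 h, 4 °C) and ABTS substrate. IC50 values are means of several measurements.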

For the next assay, the target named is human Gal-1 (hGal-1). Description: Competitive binding assay: biotinylated hGal-1 binding to microplate-adsorbed asialofetuin (ASF). The settings on record: Activity on hGal-1; binding of biotinylated hGal-1 to ASF-coated plates; mean values. The method, boiled down: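 Inhibition measured as loss of hGal-1 (biotinylated, 300–1000 ng/mL, wild type or Cys→Ser mutant) binding to adsorbed asialofetuin over 3 h at 4 °C. Bound lectin detected with streptavidin-HRP and ABTS (410 nm, 30–45 min); IC50 values averaged across repeat measurements.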
Sequence of human Gal-1 (hGal-1) (P09382 2-135 limits assumed): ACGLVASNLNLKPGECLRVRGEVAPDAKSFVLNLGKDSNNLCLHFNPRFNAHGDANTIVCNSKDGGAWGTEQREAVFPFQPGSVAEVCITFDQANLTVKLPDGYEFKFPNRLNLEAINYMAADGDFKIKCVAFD

Sequence of human Gal-3 (hGal-3) (P17931 whole entry): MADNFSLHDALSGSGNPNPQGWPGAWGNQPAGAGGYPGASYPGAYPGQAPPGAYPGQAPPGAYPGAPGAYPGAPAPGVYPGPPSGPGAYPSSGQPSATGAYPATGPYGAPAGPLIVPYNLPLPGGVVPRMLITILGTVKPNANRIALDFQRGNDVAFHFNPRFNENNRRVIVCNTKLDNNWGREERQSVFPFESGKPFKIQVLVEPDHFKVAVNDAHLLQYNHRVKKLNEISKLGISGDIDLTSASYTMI

Usually IC50 stands for the concentration that gives 50% inhibition. Read a high IC50 as weaker potency. For `CO[C@@H]1[C@@H](n2cc(-c3cc(F)c(F)c(Cl)c3)nn2)[C@@H](O)[C@@H](CO)O[C@H]1C(=O)N(c1ccc2ncsc2c1)[C@H]1CCCC[C@@H]1O` [Example 131, (2R,3R,4S,5R,6R)-N-(benzo[d]thiazol-6-yl)-4-(4-(3-chloro-4,5-difluorophenyl)-1H-1,2,3-triazol-1-yl)-5-hydroxy-N-((1S,2S)-2-hydroxycyclohexyl)-6-(hydroxymethyl)-3-methoxytetrahydro-2H-pyran-2-carboxamide], the IC50 at human Gal-3 (hGal-3) worked out at 0.034 µM; at human Gal-1 (hGal-1), 0.224 µM.
Regarding `CO[C@@H]1[C@@H](n2cc(-c3cc(F)c(F)c(Cl)c3)nn2)[C@@H](O)[C@@H](CO)O[C@H]1C(=O)N(c1cc(Cl)cc(C#N)c1)[C@H]1CCCC[C@@H]1O` [Example 132, (2R,3R,4S,5R,6R)-4-(4-(3-chloro-4,5-difluorophenyl)-1H-1,2,3-triazol-1-yl)-N-(3-chloro-5-cyanophenyl)-5-hydroxy-N-((1S,2S)-2-hydroxycyclohexyl)-6-(hydroxymethyl)-3-methoxytetrahydro-2H-pyran-2-carboxamide], the figures for the IC50 at human Gal-3 (hGal-3) and at human Gal-1 (hGal-1) were 0.013 µM and 0.14 µM, respectively.
With `CO[C@@H]1[C@@H](n2cc(-c3cc(F)cc(Cl)c3)nn2)[C@@H](O)[C@@H](CO)O[C@H]1C(=O)N(c1ccc(F)c(F)c1)[C@H]1CCCC[C@@H]1O` [Example 134, (2R,3R,4S,5R,6R)-4-(4-(3-chloro-5-fluorophenyl)-1H-1,2,3-triazol-1-yl)-N-(3,4-difluorophenyl)-5-hydroxy-N-((1S,2S)-2-hydroxycyclohexyl)-6-(hydroxymethyl)-3-methoxytetrahydro-2H-pyran-2-carboxamide], the IC50 at human Gal-3 (hGal-3) is 0.063 µM; on human Gal-1 (hGal-1), 0.761 µM.
Take `CO[C@@H]1[C@@H](n2cc(-c3cc(F)cc(Cl)c3)nn2)[C@@H](O)[C@@H](CO)O[C@H]1C(=O)N(c1cc(F)cc(C#N)c1)[C@H]1CCCC[C@@H]1O` [Example 135, (2R,3R,4S,5R,6R)-4-(4-(3-chloro-5-fluorophenyl)-1H-1,2,3-triazol-1-yl)-N-(3-cyano-5-fluorophenyl)-5-hydroxy-N-((1S,2S)-2-hydroxycyclohexyl)-6-(hydroxymethyl)-3-methoxytetrahydro-2H-pyran-2-carboxamide]: the half-maximal inhibitory concentration (IC50) was 0.052 µM on human Gal-3 (hGal-3) and 0.27 µM on human Gal-1 (hGal-1).
With `CO[C@@H]1[C@@H](n2cc(-c3cc(F)cc(Cl)c3)nn2)[C@@H](O)[C@@H](CO)O[C@H]1C(=O)N(c1cc(F)cc(Br)c1)[C@H]1CCCC[C@@H]1O` [Example 136, (2R,3R,4S,5R,6R)-N-(3-bromo-5-fluorophenyl)-4-(4-(3-chloro-5-fluorophenyl)-1H-1,2,3-triazol-1-yl)-5-hydroxy-N-((1S,2S)-2-hydroxycyclohexyl)-6-(hydroxymethyl)-3-methoxytetrahydro-2H-pyran-2-carboxamide], the IC50 at human Gal-3 (hGal-3) came out at 0.025 µM; at human Gal-1 (hGal-1), 0.323 µM.
Taken in the same sequence, the figures for `CO[C@@H]1[C@@H](n2cc(-c3cc(F)cc(Cl)c3)nn2)[C@@H](O)[C@@H](CO)O[C@H]1C(=O)N(c1cc(Br)cc(C#N)c1)[C@H]1CCCC[C@@H]1O` [Example 137, (2R,3R,4S,5R,6R)-N-(3-bromo-5-cyanophenyl)-4-(4-(3-chloro-5-fluorophenyl)-1H-1,2,3-triazol-1-yl)-5-hydroxy-N-((1S,2S)-2-hydroxycyclohexyl)-6-(hydroxymethyl)-3-methoxytetrahydro-2H-pyran-2-carboxamide] were 0.024 µM and 0.318 µM.
`CO[C@@H]1[C@@H](n2cc(-c3cc(F)cc(Cl)c3)nn2)[C@@H](O)[C@@H](CO)O[C@H]1C(=O)N(c1cccc(Br)c1)[C@H]1CCCC[C@@H]1O` [Example 138, (2R,3R,4S,5R,6R)-N-(3-bromophenyl)-4-(4-(3-chloro-5-fluorophenyl)-1H-1,2,3-triazol-1-yl)-5-hydroxy-N-((1S,2S)-2-hydroxycyclohexyl)-6-(hydroxymethyl)-3-methoxytetrahydro-2H-pyran-2-carboxamide]: the values for the IC50 at human Gal-3 (hGal-3) and at human Gal-1 (hGal-1) were 0.043 µM and 0.935 µM, respectively.
Taken in the same sequence, the figures for `CO[C@@H]1[C@@H](n2cc(-c3cc(F)cc(Cl)c3)nn2)[C@@H](O)[C@@H](CO)O[C@H]1C(=O)N(c1cc(Cl)cc(Cl)c1)[C@H]1CCCC[C@@H]1O` [Example 139, (2R,3R,4S,5R,6R)-4-(4-(3-chloro-5-fluorophenyl)-1H-1,2,3-triazol-1-yl)-N-(3,5-dichlorophenyl)-5-hydroxy-N-((1S,2S)-2-hydroxycyclohexyl)-6-(hydroxymethyl)-3-methoxytetrahydro-2H-pyran-2-carboxamide] were 0.027 µM and 0.86 µM.
The like results for `CO[C@@H]1[C@@H](n2cc(-c3cc(F)cc(Cl)c3)nn2)[C@@H](O)[C@@H](CO)O[C@H]1C(=O)N(c1cc(C)cc(C#N)c1)[C@H]1CCCC[C@@H]1O` [Example 140, (2R,3R,4S,5R,6R)-4-(4-(3-chloro-5-fluorophenyl)-1H-1,2,3-triazol-1-yl)-N-(3-cyano-5-methylphenyl)-5-hydroxy-N-((1S,2S)-2-hydroxycyclohexyl)-6-(hydroxymethyl)-3-methoxytetrahydro-2H-pyran-2-carboxamide] were, in that order, 0.033 µM and 0.671 µM.
As for `COc1cc(C#N)cc(N(C(=O)[C@@H]2O[C@H](CO)[C@H](O)[C@H](n3cc(-c4cc(F)cc(Cl)c4)nn3)[C@H]2OC)[C@H]2CCCC[C@@H]2O)c1` [Example 141, (2R,3R,4S,5R,6R)-4-(4-(3-chloro-5-fluorophenyl)-1H-1,2,3-triazol-1-yl)-N-(3-cyano-5-methoxyphenyl)-5-hydroxy-N-((1S,2S)-2-hydroxycyclohexyl)-6-(hydroxymethyl)-3-methoxytetrahydro-2H-pyran-2-carboxamide], the IC50 stood at 0.056 µM at human Gal-3 (hGal-3) and 1.56 µM on human Gal-1 (hGal-1).
Taken in the same sequence, the figures for `CO[C@@H]1[C@@H](n2cc(-c3cc(F)cc(Cl)c3)nn2)[C@@H](O)[C@@H](CO)O[C@H]1C(=O)N(c1cccc(C#N)c1)[C@H]1CCCC[C@@H]1O` [Example 142, (2R,3R,4S,5R,6R)-4-(4-(3-chloro-5-fluorophenyl)-1H-1,2,3-triazol-1-yl)-N-(3-cyanophenyl)-5-hydroxy-N-((1S,2S)-2-hydroxycyclohexyl)-6-(hydroxymethyl)-3-methoxytetrahydro-2H-pyran-2-carboxamide] were 0.077 µM and 1.67 µM.
The like results for `CO[C@@H]1[C@@H](n2cc(-c3cc(F)cc(Cl)c3)nn2)[C@@H](O)[C@@H](CO)O[C@H]1C(=O)N(c1cccc(Cl)c1)[C@H]1CCCC[C@@H]1O` [Example 143, (2R,3R,4S,5R,6R)-4-(4-(3-chloro-5-fluorophenyl)-1H-1,2,3-triazol-1-yl)-N-(3-chlorophenyl)-5-hydroxy-N-((1S,2S)-2-hydroxycyclohexyl)-6-(hydroxymethyl)-3-methoxytetrahydro-2H-pyran-2-carboxamide] were, in that order, 0.024 µM and 1.41 µM.
For the compound `CO[C@@H]1[C@@H](n2cc(-c3cc(F)cc(Br)c3)nn2)[C@@H](O)[C@@H](CO)O[C@H]1C(=O)N(c1cc(Cl)cc(Cl)c1)[C@H]1CCCC[C@@H]1O` [Example 144, (2R,3R,4S,5R,6R)-4-(4-(3-bromo-5-fluorophenyl)-1H-1,2,3-triazol-1-yl)-N-(3,5-dichlorophenyl)-5-hydroxy-N-((1S,2S)-2-hydroxycyclohexyl)-6-(hydroxymethyl)-3-methoxytetrahydro-2H-pyran-2-carboxamide], the IC50 amounted to 0.061 µM on human Gal-3 (hGal-3) and 0.726 µM on human Gal-1 (hGal-1).
`CO[C@@H]1[C@@H](n2cc(-c3cc(F)cc(Br)c3)nn2)[C@@H](O)[C@@H](CO)O[C@H]1C(=O)N(c1cc(Cl)cc(C#N)c1)[C@H]1CCCC[C@@H]1O` [Example 145, (2R,3R,4S,5R,6R)-4-(4-(3-bromo-5-fluorophenyl)-1H-1,2,3-triazol-1-yl)-N-(3-chloro-5-cyanophenyl)-5-hydroxy-N-((1S,2S)-2-hydroxycyclohexyl)-6-(hydroxymethyl)-3-methoxytetrahydro-2H-pyran-2-carboxamide]: the IC50 is 0.018 µM at human Gal-3 (hGal-3) and 0.218 µM on human Gal-1 (hGal-1).
The like results for `CO[C@@H]1[C@@H](n2cc(-c3cc(F)cc(Br)c3)nn2)[C@@H](O)[C@@H](CO)O[C@H]1C(=O)N(c1cc(C)cc(C#N)c1)[C@H]1CCCC[C@@H]1O` [Example 146, (2R,3R,4S,5R,6R)-4-(4-(3-bromo-5-fluorophenyl)-1H-1,2,3-triazol-1-yl)-N-(3-cyano-5-methylphenyl)-5-hydroxy-N-((1S,2S)-2-hydroxycyclohexyl)-6-(hydroxymethyl)-3-methoxytetrahydro-2H-pyran-2-carboxamide] were, in that order, 0.05 µM and 0.751 µM.
Taken in the same sequence, the figures for `CO[C@@H]1[C@@H](n2cc(-c3cc(F)cc(Br)c3)nn2)[C@@H](O)[C@@H](CO)O[C@H]1C(=O)N(c1cc(F)cc(Cl)c1)[C@H]1CCCC[C@@H]1O` [Example 147, (2R,3R,4S,5R,6R)-4-(4-(3-bromo-5-fluorophenyl)-1H-1,2,3-triazol-1-yl)-N-(3-chloro-5-fluorophenyl)-5-hydroxy-N-((1S,2S)-2-hydroxycyclohexyl)-6-(hydroxymethyl)-3-methoxytetrahydro-2H-pyran-2-carboxamide] were 0.071 µM and 0.53 µM.
The like results for `CO[C@@H]1[C@@H](n2cc(-c3cc(F)cc(Br)c3)nn2)[C@@H](O)[C@@H](CO)O[C@H]1C(=O)N(c1cccc(C#N)c1)[C@H]1CCCC[C@@H]1O` [Example 148, (2R,3R,4S,5R,6R)-4-(4-(3-bromo-5-fluorophenyl)-1H-1,2,3-triazol-1-yl)-N-(3-cyanophenyl)-5-hydroxy-N-((1S,2S)-2-hydroxycyclohexyl)-6-(hydroxymethyl)-3-methoxytetrahydro-2H-pyran-2-carboxamide] were, in that order, 0.081 µM and 0.343 µM.
